Test results from US20240408073A1, “METHODS FOR TREATING A TRAUMA PATIENT” (Beth Israel Deaconess Medical Center, Inc., priority 2021, published 2024).

Assays:
PMN [1] = test: PMN CTX (chemotaxis) transwell assay; format: cell-based, human
Procedure: Human PMN were isolated from freshly withdrawn peripheral blood of healthy volunteers, as described previously. In brief, heparinized whole blood (10 U/ml) was centrifuged at 200×g for 10 min. The buffy coat and RBC were layered onto 1-Step Polymorphs (AN221725, Accurate Chemical & Scientific Corp, Carle Place, NY, USA), followed by centrifugation at 500×g for 30 min. The PMN layer was collected and diluted with an equal volume of 0.45% NaCl to restore osmolarity for 5 min at room temperature. The suspensions were then washed in RPMI 1640 and centrifuged at 200×g for 10 min. RBC in pellet were lysed with ice-cold 0.2% NaCl for 20 sec and the same volume of 1.6% NaCl was applied to end lysis. Cells were centrifuged again at 200×g for 10 min to collect PMN. PMN were resuspended in physiological solutions depending on the next functional study.
CTX assay PMN CTX was studied in […]. 1×10^5 PMN in 75 μL of RPMI with 2% heat-inactivated FBS were applied to the upper chamber and 150 μL of the same media containing indicated chemoattractants were applied to the lower chamber. mtDNA application was done at RT, rotating for 15 min. […] Cells were incubated (37° C., 5% CO2) for 60 min. PMN were then collected from the lower chambers, centrifuged (500×g, 5 min, RT) and re-suspended in 200 μL of cell lysis solution (×1/20) with CyQUANT GR dye (×1/400) in water for 15 min at RT (C7026, Thermo Fisher Scientific). PMN numbers were evaluated in 96-well plates using 480 nm excitation and 520 nm emission with known numbers of PMN for standard curve.

PMN [2] = test: NETosis of PMN incubated with trauma plasma, induced by PMA; format: cell-based, human; conditions: post-treatment 30 min after plasma, FIG. 9F
[3] = system: Formyl Peptide Receptor-1 (FPR1); test: Flow cytometry for surface expression of FPR1 on human PMN; format: cell-based; conditions: FIG. 9G
Procedure: Finally, PMN were incubated with fluorescein (FITC)-conjugated anti-human FPR1 antibody (FAB3744F, LifeSpan BioSciences Inc., Seattle, WA), phycoerythrin (PE)-conjugated anti-human CXCR2 antibody (FAB331P, LifeSpan BioSciences Inc.), or PE-conjugated anti-human BLT1 antibody (FAB099P, LifeSpan BioSciences Inc.) in the dark for 30 min at room temperature. FITC-conjugated isotype antibody (400210, BioLegend, San Diego, CA) or PE-conjugated isotype antibody (400212, BioLegend) was used as a negative control. Allophycocyanin (APC)—conjugated anti-human CD16 antibody (360705, BioLegend) was used to confirm PMN identification.

human PMN [4] = test: Bacterial phagocytosis assay by flow cytometry; format: cell-based; conditions: drug 30 min, then mtDNA 15 min; FIG. 4A
PMN [5] = test: PMN respiratory burst in trauma patient plasma; format: cell-based, human; conditions: FIG. 9E
[6] = cited from earlier work; for Drug-drug interactions: VAL with PAR, clinical settings; for Bioavailability: both by parenteral and enteral routes
Staphylococcus aureus = test: Mouse trauma (laparotomy + liver crush) plus intratracheal Staphylococcus aureus lung infection; format: in vivo, CD-1 mice; conditions: PAR 20 mg/kg
Procedure: Following 48 hr acclimatization, 8-9 week-old male CD-1 mice (body weight 30-32 g) underwent laparotomy followed by crushing of the left lobe of liver 8 times using a sterile forceps. […] Mice were sacrificed 18 h later and bronchoalveolar lavage (BAL) fluid (BALF) was collected by tracheal irrigation with 1 mL of PBS. The collected BALF was centrifuged; the pellet was diluted to count the number of immune cells; and the supernatant was then separated and applied to agar plates to count the remaining bacteria. Experiments were repeated as noted and data were combined.

cortactin = test: Western blot of acetylated cortactin in PMN; format: cell-based, human; conditions: PAR in conjunction with mtDNA; FIG. 3H
Procedure: Briefly, PMN samples were dissolved in Pierce RIPA lysis buffer (25 mM Tris HCl pH 7.6, 150 mM NaCl, 1% NP-40, 1% sodium deoxycholate, 0.1% SDS) (Thermo Fisher Scientific, Waltham, MA, USA) containing Halt Protease & Phosphatase Inhibitor Cocktail (Thermo Fisher Scientific) for 20 min on ice, followed by centrifugation at […] for 20 min at 4° C. Then, the supernatant was collected, concentration was measured using a Pierce BCA Protein Assay Kit (Thermo Fisher Scientific). After mixing and boiling (95° C., 10 min) protein lysate with appropriate amount of 6×Laemmli SDS-sample buffer (J61337, Alfa Aesar, Tewksbury, MA, USA) according to the protein concentration, 40 μg of protein lysates were separated by SDS/PAGE and transferred to nitrocellulose membranes contained in an iBlot Transfer Stack kit (IB301002, Thermo Fisher Scientific). […] After being incubated with their appropriate secondary antibodies conjugated with horseradish peroxidase (HRP) the following day, the immunoblot signals were detected by application of the Amersham ECL Prime Western Blotting Detection Reagent kit (Cytiva, Marlborough, MA, USA) in a ChemiDoc Imaging System (Bio-Rad, Hercules, CA, USA). Quantification of blots were performed using Image J v.1.53i (National Institute of Health, Bethesda, MD, USA).

human PMN [7] = test: Bacterial phagocytosis assay by colony-forming unit (CFU) count; format: cell-based; conditions: drug 30 min, then mtDNA 15 min; for PMN uptake of Sa in co-culture suppressed by mtDNA (PMN lysis/agar plate): FIG. 4B; for Sa killing / clearance of Sa from co-culture media suppressed by mtDNA: FIG. 4C
Procedure: Before the CFU count of bacteria, Staphylococcus aureus (Sa) were opsonized with autologous serum from the PMN donor. OD600=0.1 were determined as 10^8 CFU/mL according to previous measurements. […] Then, Sa were incubated with PMN at 1:1 ratio in 1 mL 0.9% NaCl supplemented with human serum for 30 min rotating. […] The supernatant was collected separately, centrifuged at 5000×g for 10 min to pellet bacteria. The bacteria were applied on agar plates and after 18 hrs the bacterial colonies were counted.

human PMN [8] = test: Actin polymerization assay by rhodamine phalloidin staining; format: cell-based; conditions: FIG. 5
Procedure: Actin polymerization was studied using an F-Actin Visualization Biochem Kit (Cytoskeleton, Inc., Denver, CO, USA) according to the manufacturer's instructions. Briefly, PMN were applied to glass slides (Thermo Fisher Scientific) pre-coated with 0.1% poly-L-lysine solution ([…], MilliporeSigma) in H2O. Then 200 μL of Fixative solution was added to the slides and incubated for 10 min at RT. After washing with 200 μL of Wash buffer for 30 sec at RT, 200 μL of Permeabilization Buffer was added to the slides and incubated for 5 min at RT. Then, the cells were stained with rhodamine phalloidin for 30 min at RT in dark. The slides were then washed with Wash buffer and Hoechst 33342 (1:1,000 in PBS) was applied to stain nucleus. Followed by 3 times of washing, 20 μL of Mounting medium was added to the center of each slide and a coverslip was put on. Clear nail polish was used to seal coverslips. The actin filaments were observed using AxioImager Epifluorescence Microscope (Zeiss, Jena, Germany) at excitation 535 nm and emission 585 nm.

HDAC6 = target: T1, HDAC6 (Homo sapiens, UniProt Q9UBN7); test: HDAC6 activation
T1 construct: endogenous in cells; host or cells: PMN
T1 sequence (Q9UBN7 1-1215): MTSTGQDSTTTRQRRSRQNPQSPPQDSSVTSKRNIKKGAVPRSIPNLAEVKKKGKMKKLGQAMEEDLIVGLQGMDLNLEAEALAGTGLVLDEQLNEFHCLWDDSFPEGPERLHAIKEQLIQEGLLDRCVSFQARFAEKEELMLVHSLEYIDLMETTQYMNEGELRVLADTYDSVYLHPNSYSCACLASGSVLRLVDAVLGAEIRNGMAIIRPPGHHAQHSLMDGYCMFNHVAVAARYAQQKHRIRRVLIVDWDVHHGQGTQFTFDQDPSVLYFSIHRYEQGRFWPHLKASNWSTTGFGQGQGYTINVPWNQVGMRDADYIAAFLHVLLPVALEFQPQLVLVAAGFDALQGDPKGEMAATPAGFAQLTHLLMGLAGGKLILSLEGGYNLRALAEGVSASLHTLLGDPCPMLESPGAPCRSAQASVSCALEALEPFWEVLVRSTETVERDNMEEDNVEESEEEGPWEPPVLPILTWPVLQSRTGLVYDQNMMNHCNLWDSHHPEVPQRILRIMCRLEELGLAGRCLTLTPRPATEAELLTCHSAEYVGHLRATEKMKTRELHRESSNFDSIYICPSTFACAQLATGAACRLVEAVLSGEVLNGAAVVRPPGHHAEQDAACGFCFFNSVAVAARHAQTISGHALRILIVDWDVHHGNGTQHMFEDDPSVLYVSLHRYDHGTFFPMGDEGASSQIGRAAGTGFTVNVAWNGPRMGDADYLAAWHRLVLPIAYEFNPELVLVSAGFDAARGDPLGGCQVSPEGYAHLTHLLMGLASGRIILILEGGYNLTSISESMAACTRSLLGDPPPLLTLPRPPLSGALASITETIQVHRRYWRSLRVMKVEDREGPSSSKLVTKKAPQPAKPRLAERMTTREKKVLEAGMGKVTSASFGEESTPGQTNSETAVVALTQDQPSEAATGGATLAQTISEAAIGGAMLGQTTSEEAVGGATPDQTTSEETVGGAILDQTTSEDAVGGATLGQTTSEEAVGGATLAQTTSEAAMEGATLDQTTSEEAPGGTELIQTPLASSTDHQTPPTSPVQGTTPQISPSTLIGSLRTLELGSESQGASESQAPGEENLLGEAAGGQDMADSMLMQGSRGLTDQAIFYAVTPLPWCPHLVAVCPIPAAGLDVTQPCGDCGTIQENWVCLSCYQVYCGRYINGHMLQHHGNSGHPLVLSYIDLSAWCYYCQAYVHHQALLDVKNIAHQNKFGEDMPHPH

[9] = inhibitor 30 min prior to mtDNA, N=6

FPR1 surface expression suppressed by ND6 [3] | Activation of HDAC6 (HDAC6) | Compound | Suppressive effect of mtDNA on PMN chemotaxis (PMN [1]; FIG. 1B, dependence on endosomal acidification) | mtDNA-induced suppression of PMN CTX to GRO-α (PMN [1]; [9]) | mtDNA-induced suppression of PMN CTX to LTB4 (PMN [1]; [9]) | NET formation (NETosis) suppressed by trauma plasma (PMN [2]) | Suppression of PMN CTX to LTB4 after ND6 exposure (PMN [1]; N=6) | Phagocytosis of SYTO9 labeled Staphylococcus aureus by human PMN suppressed by mtDNA (flow cytometry) (human PMN [4]) | PMN respiratory burst (RB) suppressed by trauma plasma (PMN [5]; post-treatment) | PMN respiratory burst (RB) suppressed by trauma plasma (PMN [5]; pre-treatment) | Drug-drug interactions [6] | Bioavailability [6] | Lung bacterial clearance (Sa CFU in BAL, % of uninjured controls) (Staphylococcus aureus; post-treatment i.p. 30 min post-injury, VPA 80 mg/kg, alone or combined) | Lung bacterial clearance (Sa CFU in BAL) (Staphylococcus aureus; pre-treatment i.p. 30 min prior to injury, Sa i.t. 4 h after trauma) | Acetylated cortactin (ac-cortactin) level (cortactin) | PMN uptake of Sa in co-culture suppressed by mtDNA (PMN lysis/agar plate) (human PMN [7]) | Sa killing / clearance of Sa from co-culture media suppressed by mtDNA (human PMN [7]) | F-actin polymerization response to LTB4 inhibited by mtDNA (human PMN [8]) | PMN CTX in the presence of mtDNA (PMN [1]) | T1/2 of elimination ([6]; human, in vivo)
– | – | CCN(CC)CCCC(C)Nc1ccnc2cc(Cl)ccc12 (stereo not drawn) [CQ, chloroquine] | blocked | – | – | – | – | – | – | – | – | – | – | – | – | – | – | – | – | –
– | – | COC(=O)c1ccc(C=Cc2ccc([N+](=O)[O-])o2)o1 [GRKi, methyl 5-[2-(5-nitro-2-furyl)vinyl]-2-furoate] | – | rescued | rescued | – | – | – | – | – | – | – | – | – | – | – | – | – | – | –
diminish FPR1 regulation by ND6 | – | Fc1ccc([C@@H]2CCNC[C@H]2COc2ccc3c(c2)OCO3)cc1 [PAR, paroxetine] | – | – | rescued | minor reversals | rescued | restored phagocytosis | ineffective | can rescue RB | no drug-drug interactions | excellent | did not confer significant protection | significantly prevented infection | blocks mtDNA suppression of ac-cortactin | restored phagocytosis | restored Sa killing | rescued | – | –
diminish FPR1 regulation by ND6 | blocks activation of HDAC6 | CCCC(CCC)C(=O)O [VPA, valproic acid] | – | – | – | minor reversals | – | reverse mtDNA-mediated suppressive effects on bacterial phagocytosis and killing | ineffective | – | no drug-drug interactions | excellent | – | – | – | reverse mtDNA-mediated suppressive effects on bacterial phagocytosis and killing | reverse mtDNA-mediated suppressive effects on bacterial phagocytosis and killing | rescued | rescued | 8 to 17 h
